This is an account of results in US9572787B2, “Inhibition of renal fibrosis” (Rhode Island Hospital, priority 2011, dated 2017).

In one data set the test system is remnant kidney. Description: Remnant kidney model (5/6 nephrectomy), suramin treatment. It counts as in vivo, rat. From the text:
The remnant kidney model was created in male Sprague-Dawley rats that weighed 180 to 200 g (Charles River Laboratories, Wilmington, Mass.). 5/6 of normal renal mass was surgically ablated according to our previous protocols. Briefly, 20 animals underwent subtotal nephrectomy involving right subcapsular nephrectomy and infarction of approximately two-thirds of the left kidney by ligation of the posterior and one or two anterior extrarenal branches of the renal artery. In addition, 12 rats underwent a sham operation (laparotomy and manipulation of the renal pedicles). On the second week after surgery, rats were randomly divided into suramin treatment and non-treatment groups. […] 24-hour urine samples were collected in metabolic cages at day 0 and weekly for the determination of urinary levels of protein. Blood was taken weekly for the measurement of serum creatinine. At 28 days after surgery, mean blood pressure was measured, and then all animals were sacrificed and kidneys were collected for further analysis. Assessment of Renal Function and Measurement of Blood Pressure. Urinary protein concentrations were determined by using the colorimetric Lowry assay. Serum creatinine was analyzed using a creatinine kit (Sigma). Mean blood pressure was determined via a catheter inserted into the femoral artery attached to the Transonic Systems pressure transducer (Transonic Systems Inc. Ithaca, N.Y.) in anesthetized rats at the end of experiment. Immunoblot Analysis. Immunoblot analysis of NRK-49F cells and tissue samples were conducted as described previously. The densitometry analysis of immunoblot results was conducted by using NIH Image software (National Institutes of Health, Bethesda, Md.). Immunofluorescent and Immunohistochemical Staining Immunofluorescent and immunohistochemical staining was performed according to the procedure described in our previous studies. For assessment of renal fibrosis, masson trichrome staining was performed according to the protocol provided by the manufacture (Sigma, St. Louis, Mo.). The collagen tissue area (blue color) was quantitatively measured using Image Pro-Plus software (Media-Cybernetics, Silver Spring, Md., USA) by drawing a line around the perimeter of positive staining area, and the average ratio to each microscopic field (400×) was calculated and graphed.

The conditions of data set [1]: in the body, cited from earlier work.
[2] abbreviates: 10 mg/kg once per week for two weeks.
[3] abbreviates: 10 mg/kg once per week for two weeks, from week 2 after surgery.

Like-named read-outs stand apart in the source and are kept apart here.

Turning to `Cc1ccc(C(=O)Nc2ccc(S(=O)(=O)O)c3cc(S(=O)(=O)O)cc(S(=O)(=O)O)c23)cc1NC(=O)c1cccc(NC(=O)Nc2cccc(C(=O)Nc3cc(C(=O)Nc4ccc(S(=O)(=O)O)c5cc(S(=O)(=O)O)cc(S(=O)(=O)O)c45)ccc3C)c2)c1` [Suramin], in the data set with remnant kidney (setting [2]), the “de novo expression of fibronectin in the remnant kidney” value was “abolished”, the “de novo expression of α-SMA in the remnant kidney” value is listed as “abolished” and the “increased expression of type 1 collagen in the remnant kidney” value is “abolished”. In the data set with remnant kidney (setting [3]), the 24-hour proteinuria result is “significantly reduced” and the serum creatinine entry was “significantly reduced”. Besides, the “hypertension (mean blood pressure)” value in the data set on remnant kidney (10 mg/kg once per week for two weeks, day 28) is reported as “not significantly affected”. In addition, in the data set with remnant kidney (10 mg/kg once per week for two weeks, week 4), the “kidney histology (glomerular and tubulointerstitial damage)” value was “preserved kidney architecture and prevented the glomerular and tubulointerstitial damage”. Besides, the “pathological changes in the kidney” value in the data set on remnant kidney (suramin alone-treated (sham-operated) animals) is on record as “no obvious pathological changes”. In addition, the half life in data set [1] is reported as 21 days. For the same compound, the half life entry in data set [1] (listed as suramin) is listed as “at least 21 days”.
